Active and inactive are the calls of the source. The rule behind the calls is not given here.
Experiments:
[1] = system: MCF-10A; test: Antiproliferative activity against human MCF10A cells at 100 ug/ml after 72 hrs by SRB assay relative to control; type: cell-based
[2] = system: MCF7; test: Antiproliferative activity against human MCF7 cells after 72 hrs by SRB assay; type: functional, cell-based; details: MCF7, 72 h
[3] = Antiproliferative activity against human LoVo/DX cells at 100 ug/ml after 72 hrs by SRB assay relative to control; type: functional
[4] = system: LoVo; test: Antiproliferative activity against human LoVo cells at 100 ug/ml after 72 hrs by SRB assay relative to control; type: functional
[5] = system: SK-BR-3; test: Antiproliferative activity against human SK-BR-3 cells at 100 ug/ml after 72 hrs by SRB assay relative to control; type: functional
[6] = system: JIMT-1; test: Antiproliferative activity against human JIMT1 cells at 100 ug/ml after 72 hrs by SRB assay relative to control; type: functional
[7] = Antiproliferative activity against human ALL5 cells at 10 uM after 120 hrs by MTT assay relative to control; type: functional
[8] = Cell cycle arrest in human ALL5 cells assessed as accumulation at S-phase at 5 times antiproliferative IC50 after 96 hrs by propidium iodide staining based flow cytometry (reference value: 7.52%); type: functional
[9] = Antiproliferative activity against human ALL5 cells after 120 hrs by MTT assay; type: functional, cell-based; details: ALL5, 120 h
[10] = Selectivity index, ratio of IC50 for human MCF10A cells to IC50 for human LoVo cells; type: toxicity; details: MCF10A cells versus LoVo cells, read-out: Ratio IC50
[11] = Cell cycle arrest in human ALL5 cells assessed as accumulation at sub-G1 phase at 5 times antiproliferative IC50 after 96 hrs by propidium iodide staining based flow cytometry (reference value: 12%); type: functional
[12] = Selectivity index, ratio of IC50 for human MCF10A cells to IC50 for human LoVo/DX cells; type: toxicity; details: MCF10A cells versus LoVo/DX cells, read-out: Ratio IC50
[13] = system: Breast carcinoma cell; test: Ex vivo antitumor activity against patient derived breast cancer tissue assessed as increase in number of dead tumor cells at 18.5 uM by H and E staining based immunohistochemical analysis; type: functional; details: Homo sapiens, TDE = time-dependent effect
[14] = system: SK-BR-3; test: Antiproliferative activity against human SK-BR-3 cells after 72 hrs by SRB assay; type: functional, cell-based; details: SK-BR-3, 72 h
[15] = Selectivity index, ratio of IC50 for human MCF10A cells to IC50 for human JIMT1 cells; type: toxicity; details: MCF10A cells versus JIMT1 cells, read-out: Ratio IC50
[16] = system: Breast carcinoma cell; test: Ex vivo antitumor activity against patient derived breast cancer tissue assessed as decrease in tumor cell proliferation at 18.5 uM by Ki-67 staining based immunohistochemical analysis; type: functional; details: Homo sapiens, TDE = time-dependent effect
[17] = system: LoVo; test: Antiproliferative activity against human LoVo cells after 72 hrs by SRB assay; type: functional, cell-based
[18] = Cell cycle arrest in human ALL5 cells assessed as accumulation at S-phase at 5 times antiproliferative IC50 after 24 hrs by propidium iodide staining based flow cytometry (reference value: 6.76%); type: functional
[19] = Resistance index, ratio of IC50 for human LoVo/DX cells to IC50 for human LoVo cells; type: functional
[20] = Antiproliferative activity against human LoVo/DX cells after 72 hrs by SRB assay; type: functional, cell-based
[21] = Cell cycle arrest in human ALL5 cells assessed as accumulation at sub-G1 phase at 5 times antiproliferative IC50 after 24 hrs by propidium iodide staining based flow cytometry (reference value: 6.07%); type: functional
[22] = Selectivity index, ratio of IC50 for human MCF10A cells to IC50 for human SK-BR-3 cells; type: toxicity; details: MCF10A cells versus SK-BR-3 cells, read-out: Ratio IC50
[23] = Cell cycle arrest in human ALL5 cells assessed as accumulation at sub-G1 phase at 5 times antiproliferative IC50 after 48 hrs by propidium iodide staining based flow cytometry (reference value: 7.8%); type: functional
[24] = Cell cycle arrest in human ALL5 cells assessed as accumulation at G2/M-phase at 5 times antiproliferative IC50 after 24 hrs by propidium iodide staining based flow cytometry (reference value: 7.98%); type: functional
[25] = system: JIMT-1; test: Antiproliferative activity against human JIMT1 cells after 72 hrs by SRB assay; type: functional, cell-based; details: JIMT-1, 72 h
[26] = Cell cycle arrest in human ALL5 cells assessed as accumulation at G2/M-phase at 5 times antiproliferative IC50 after 96 hrs by propidium iodide staining based flow cytometry (reference value: 11.1%); type: functional
[27] = Cell cycle arrest in human ALL5 cells assessed as accumulation at G2/M-phase at 5 times antiproliferative IC50 after 48 hrs by propidium iodide staining based flow cytometry (reference value: 13.2%); type: functional
[28] = system: MCF-10A; test: Antiproliferative activity against human MCF10A cells after 72 hrs by SRB assay; type: cell-based
[29] = Cell cycle arrest in human ALL5 cells assessed as accumulation at G0/G1 phase at 5 times antiproliferative IC50 after 24 hrs by propidium iodide staining based flow cytometry (reference value: 79.7%); type: functional
[30] = Cell cycle arrest in human ALL5 cells assessed as accumulation at G0/G1 phase at 5 times antiproliferative IC50 after 96 hrs by propidium iodide staining based flow cytometry (reference value: 69.8%); type: functional
[31] = Selectivity index, ratio of IC50 for human MCF10A cells to IC50 for human MCF7 cells; type: toxicity; details: MCF10A cells versus MCF7 cells, read-out: Ratio IC50
[32] = Cell cycle arrest in human ALL5 cells assessed as accumulation at S-phase at 5 times antiproliferative IC50 after 48 hrs by propidium iodide staining based flow cytometry (reference value: 9.82%); type: functional
[33] = Selectivity index, ratio of IC50 for human MCF10A cells to IC50 for human ALL5 cells; type: toxicity; details: MCF10A cells versus ALL5 cells, read-out: Ratio IC50
[34] = Cell cycle arrest in human ALL5 cells assessed as accumulation at G0/G1 phase at 5 times antiproliferative IC50 after 48 hrs by propidium iodide staining based flow cytometry (reference value: 69.6%); type: functional
[35] = system: Breast carcinoma cell; test: Ex vivo antitumor activity against patient derived breast cancer tissue assessed as decrease in tumor cell proliferation at 6.2 uM by Ki-67 staining based immunohistochemical analysis; type: functional; details: Homo sapiens, TDE = time-dependent effect
[36] = system: Breast carcinoma cell; test: Ex vivo antitumor activity against patient derived breast cancer tissue assessed as increase in number of dead tumor cells at 6.2 uM by H and E staining based immunohistochemical analysis; type: functional; details: Homo sapiens, TDE = time-dependent effect
[37] = species on record: Homo sapiens; test: Induction of apoptosis in human ALL5 cells assessed as increase in p53 expression at 0.2 uM up to 96 hrs by immunoblot analysis; type: functional, cell-based
[38] = species on record: Homo sapiens; test: Induction of apoptosis in human ALL5 cells assessed as increase in cleaved PARP expression at 0.2 uM up to 96 hrs by immunoblot analysis; type: functional, cell-based
[39] = species on record: Homo sapiens; test: Induction of apoptosis in human ALL5 cells assessed as increase in cleaved PARP expression at 9.5 uM up to 48 hrs by immunoblot analysis; type: functional, cell-based
[40] = species on record: Homo sapiens; test: Induction of apoptosis in human ALL5 cells assessed as increase in cleaved PARP expression at 9.5 uM after 96 hrs by immunoblot analysis; type: functional, cell-based
[41] = species on record: Homo sapiens; test: Induction of apoptosis in human ALL5 cells assessed as increase in p53 expression at 9.5 uM up to 96 hrs by immunoblot analysis; type: functional, cell-based

Structure (SMILES) | Activity [1] | IC50 [2] [nM] | Activity [4] | Activity [5] | IC50 [9] [nM] | Activity [11] [%] | IC50 [14] [nM] | IC50 [17] [nM] | IC50 [20] [nM] | Activity [21] [%] | Activity [23] [%] | Activity [24] [%] | IC50 [25] [nM] | Activity [26] [%] | Activity [27] [%] | IC50 [28] [nM] | Activity [29] [%] | Activity [30] [%] | Activity [32] [%] | Activity [34] [%] | also measured
CCOC(=O)O[C@@H]1C=C[C@]2(O[C@H]([C@@H](CC)C(=O)[C@@H](C)[C@@H](O)[C@H](C)[C@@H]3O[C@@H]([C@@H](CC)C(=O)OCC(F)(F)F)CC[C@@H]3C)[C@@H](C)C[C@H]2C)O[C@@]12CC[C@@](C)([C@H]1CC[C@](O)(CC)[C@H](C)O1)O2 | <= 50% | 68000 | <=50% | <=50% | – | – | – | – | – | – | – | – | – | – | – | – | – | – | – | – | Activity [3]: <=50%; Activity [6]: <=50%; Activity [7]: <=50%
CC[C@@H](C(=O)[C@@H](C)[C@@H](O)[C@H](C)[C@@H]1O[C@@H]([C@@H](CC)C(=O)NCCc2ccc(F)cc2)CC[C@@H]1C)[C@H]1O[C@]2(C=C[C@@H](OC(C)=O)[C@]3(CC[C@@](C)([C@H]4CC[C@](O)(CC)[C@H](C)O4)O3)O2)[C@H](C)C[C@@H]1C | – | 3700 | – | – | 1800 | 49.3 | 3800 | 4000 | 3500 | 11 | 27.4 | 5.08 | 3700 | 1.96 | 5.2 | 43000 | 79.9 | 47.3 | 2.15 | 65.6 | Activity [8]: 1.55%; selectivity ratio [10]: 11; selectivity ratio [12]: 12; Activity [13]: Tde; selectivity ratio [15]: 12; Activity [16]: Tde; Activity [18]: 4.18%; Ratio IC50 [19]: 0.88; selectivity ratio [22]: 11; selectivity ratio [31]: 12; selectivity ratio [33]: 24
CC[C@@H](C(=O)[C@@H](C)[C@@H](O)[C@H](C)[C@@H]1O[C@@H]([C@@H](CC)C(=O)O)CC[C@@H]1C)[C@H]1O[C@]2(C=C[C@@H](O)[C@]3(CC[C@@](C)([C@H]4CC[C@](O)(CC)[C@H](C)O4)O3)O2)[C@H](C)C[C@@H]1C [SALINOMYCIN] | – | 1500 | – | – | 2400 | – | 890 | 440 | 690 | – | – | – | 1300 | – | – | 46000 | – | – | – | – | selectivity ratio [10]: 105; Activity [35]: Tde; selectivity ratio [12]: 67; selectivity ratio [15]: 35; Activity [36]: Tde; Ratio IC50 [19]: 1.6; selectivity ratio [22]: 52; selectivity ratio [31]: 31; selectivity ratio [33]: 19
COc1cccc2c1C(=O)c1c(O)c3c(c(O)c1C2=O)C[C@@](O)(C(=O)CO)C[C@@H]3O[C@H]1C[C@H](N)[C@H](O)[C@H](C)O1 [DOXORUBICIN] | – | 260 | – | – | 40 | 62.7 | 370 | 240 | 10000 | 8.94 | 27.4 | 8.96 | 590 | 2.16 | 2.76 | 580 | 78.2 | 31.6 | 3.23 | 66.8 | Activity [37]: Active; Activity [38]: Active
C#CCOC(=O)[C@H](CC)[C@H]1CC[C@H](C)[C@H]([C@@H](C)[C@H](O)[C@H](C)C(=O)[C@H](CC)[C@H]2O[C@]3(C=C[C@@H](OC(=O)OCC)[C@]4(CC[C@@](C)([C@H]5CC[C@](O)(CC)[C@H](C)O5)O4)O3)[C@H](C)C[C@@H]2C)O1 | <= 50% | 38000 | <=50% | <=50% | 1900 | 19.8 | – | – | 8100 | 4.82 | 10.6 | 8.79 | – | 7.59 | 8.29 | – | 81.2 | 67.8 | 5.9 | 75.6 | Activity [8]: 5.03%; Activity [39]: inactive; Activity [40]: Active; Activity [18]: 5.6%; Activity [6]: <=50%; Activity [41]: Active

Source: ChEMBL document CHEMBL4270561, “Biological activity of doubly modified salinomycin analogs - Evaluation in vitro and ex vivo” (Eur J Med Chem, 2018)
